Laboratory results: PubChem BioAssay (NCI)
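All cell lines were grown in 96-well plates and treated with compound for 48 hours. TGI marks complete inhibition of growth.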

Legend:
Test in all cases: NCI-60 cell line screen, 48 h
RXF 393 renal = tested on: RXF 393 renal
SR leukemia = tested on: SR leukemia
HOP-62 NSCLC = tested on: HOP-62 NSCLC
MCF7 breast = tested on: MCF7 breast
HCT-15 colon = tested on: HCT-15 colon
SNB-75 CNS = tested on: SNB-75 CNS
K-562 leukemia = tested on: K-562 leukemia
RPMI-8226 leukemia = tested on: RPMI-8226 leukemia
SK-MEL-2 melanoma = tested on: SK-MEL-2 melanoma
COLO 205 colon = tested on: COLO 205 colon

CCOC(=O)c1ccc(Nc2nc3ccc(C(F)(F)F)cc3nc2-c2ccccc2)cc1
TGI (RXF 393 renal): > 100 µM
TGI (SR leukemia): > 100 µM
TGI (HOP-62 NSCLC): > 100 µM
TGI (MCF7 breast): > 100 µM
TGI (HCT-15 colon): > 100 µM
TGI (SNB-75 CNS): > 100 µM
TGI (K-562 leukemia): > 100 µM
TGI (RPMI-8226 leukemia): > 100 µM

C=CCOc1ccc(C2c3c([nH][nH]c3=O)CC(C)(O)C2C(=O)OC)cc1OC (stereo unspecified)
TGI (SK-MEL-2 melanoma): > 100 µM
TGI (SR leukemia): > 100 µM
TGI (HOP-62 NSCLC): > 100 µM
TGI (MCF7 breast): > 100 µM
TGI (HCT-15 colon): > 100 µM
TGI (SNB-75 CNS): > 100 µM
TGI (RPMI-8226 leukemia): > 100 µM
TGI (COLO 205 colon): > 100 µM

COc1ccc(NC(C)=O)c(C(=O)CCNC(C)=O)c1
TGI (RXF 393 renal): > 100 µM
TGI (SK-MEL-2 melanoma): > 100 µM
TGI (SR leukemia): > 100 µM
TGI (MCF7 breast): > 100 µM
TGI (HCT-15 colon): > 100 µM
TGI (SNB-75 CNS): > 100 µM
TGI (RPMI-8226 leukemia): > 100 µM
TGI (COLO 205 colon): > 100 µM

CN(C)CCCNC(=O)CNC(=O)c1cc(NC(=O)c2cc(NC(=O)c3cc(NC(=O)CCNC(=O)c4cc(NC(=O)c5cc(NC(=O)c6nccn6C)cn5C)cn4C)cn3C)cn2C)cn1C
TGI (SK-MEL-2 melanoma): > 100 µM
TGI (HOP-62 NSCLC): > 100 µM
TGI (MCF7 breast): > 100 µM
TGI (HCT-15 colon): > 100 µM
TGI (SNB-75 CNS): > 100 µM
TGI (K-562 leukemia): > 100 µM
TGI (RPMI-8226 leukemia): > 100 µM
TGI (COLO 205 colon): > 100 µM

CC1(C)OC2CN(C(=O)OCc3ccccc3)C(CO)C2O1 (stereo unspecified)
TGI (RXF 393 renal): > 100 µM
TGI (SK-MEL-2 melanoma): > 100 µM
TGI (HOP-62 NSCLC): > 100 µM
TGI (MCF7 breast): > 100 µM
TGI (HCT-15 colon): > 100 µM
TGI (SNB-75 CNS): > 100 µM
TGI (K-562 leukemia): > 100 µM
TGI (RPMI-8226 leukemia): > 100 µM
TGI (COLO 205 colon): > 100 µM

Cc1ccc(S(=O)(=O)OCC23CCC(C4CC42)C2CC23)cc1 (stereo unspecified)
TGI (SR leukemia): > 100 µM
TGI (HOP-62 NSCLC): > 100 µM
TGI (HCT-15 colon): > 100 µM
TGI (K-562 leukemia): > 100 µM
TGI (RPMI-8226 leukemia): > 100 µM
TGI (COLO 205 colon): > 100 µM

C=C(Br)C(Cl)(CBr)CCC(Br)C(C)(C)Cl (stereo unspecified)
TGI (RXF 393 renal): > 10 µM
TGI (SK-MEL-2 melanoma): > 10 µM
TGI (SR leukemia): > 10 µM
TGI (HOP-62 NSCLC): > 10 µM
TGI (MCF7 breast): > 10 µM
TGI (SNB-75 CNS): > 10 µM
TGI (K-562 leukemia): > 10 µM
TGI (RPMI-8226 leukemia): > 10 µM
TGI (COLO 205 colon): > 10 µM

CC1(C)SC2C(NC(=O)Cc3ccccc3)C(=O)N2C1C(=O)O (stereo unspecified)
TGI (RXF 393 renal): > 100 µM
TGI (SK-MEL-2 melanoma): > 100 µM
TGI (SR leukemia): > 100 µM
TGI (HOP-62 NSCLC): > 100 µM
TGI (MCF7 breast): > 100 µM
TGI (HCT-15 colon): > 100 µM
TGI (SNB-75 CNS): > 100 µM
TGI (K-562 leukemia): > 100 µM
TGI (COLO 205 colon): > 100 µM

COc1ncc(C#CC(=O)c2ccccc2OC)c(OC)n1
TGI (RXF 393 renal): 3.32 µM
TGI (SK-MEL-2 melanoma): 6.4 µM
TGI (HOP-62 NSCLC): 40.5 µM
TGI (MCF7 breast): 2.91 µM
TGI (HCT-15 colon): 2.08 µM
TGI (SNB-75 CNS): 10.2 µM
TGI (K-562 leukemia): > 42.9 µM
TGI (RPMI-8226 leukemia): 9.65 µM
TGI (COLO 205 colon): 4.12 µM

COc1cc(/C=C2\CCc3cc(OC)c(OC)cc3C2=O)cc(OC)c1
TGI (RXF 393 renal): > 42.4 µM
TGI (SK-MEL-2 melanoma): > 57.8 µM
TGI (HOP-62 NSCLC): > 87.1 µM
TGI (MCF7 breast): > 84.3 µM
TGI (HCT-15 colon): > 44.3 µM
TGI (SNB-75 CNS): > 100 µM
TGI (K-562 leukemia): > 61 µM
TGI (RPMI-8226 leukemia): > 60.1 µM
TGI (COLO 205 colon): > 52.1 µM

CC1(C)OC[C@@]2([C@@H]3CC[C@@H](C3)C2(C)C)N1O
TGI (RXF 393 renal): > 100 µM
TGI (SK-MEL-2 melanoma): > 100 µM
TGI (HOP-62 NSCLC): > 100 µM
TGI (MCF7 breast): > 100 µM
TGI (HCT-15 colon): > 100 µM
TGI (SNB-75 CNS): > 100 µM
TGI (K-562 leukemia): > 100 µM
TGI (RPMI-8226 leukemia): > 100 µM
TGI (COLO 205 colon): > 100 µM

N#C[C@](CO)(NC(=O)OCc1ccccc1)C(F)F
TGI (RXF 393 renal): > 100 µM
TGI (SK-MEL-2 melanoma): > 100 µM
TGI (SR leukemia): > 100 µM
TGI (HOP-62 NSCLC): > 100 µM
TGI (HCT-15 colon): > 100 µM
TGI (SNB-75 CNS): > 100 µM
TGI (K-562 leukemia): > 100 µM
TGI (RPMI-8226 leukemia): > 100 µM
TGI (COLO 205 colon): > 100 µM
